# Experimental data as given in the OPERA property sets (Mansouri et al. 2018).
# Details: not given
Structure (SMILES),melting point [°C],log10 Koa,boiling point [°C],ready biodegradability,log10 Henry constant (atm·m³/mol),log10 vapour pressure (mmHg),log10 Koc (L/kg),log10 biodegradation half-life (days)
CC(=O)Oc1ccccc1C(=O)OC(=O)c1ccccc1OC(C)=O,83,–,–,–,–,–,–,–
Clc1cc2oc3ccc(Cl)c(Cl)c3c2c(Cl)c1Cl,–,10.5,–,–,–,–,–,–
CCCCCCCCCCCCCCCCOC(=O)C(C)O (centres undefined),41,–,–,–,–,–,–,–
CC(Cl)CBr (centres undefined),–,–,118,–,–,–,–,–
CCCCCCCCCCCC(=O)Oc1c(Cl)c(Cl)c(Cl)c(Cl)c1Cl,–,–,–,not readily biodegradable,–,–,–,–
S=C=Nc1ccc(Br)cc1,60.5,–,–,–,–,–,–,–
Cc1cccc(C)c1N(Cn1cccn1)C(=O)CCl,85,–,–,–,-9.25,–,–,–
c1ccc(CSc2ccccc2)cc1,43.5,–,–,–,–,–,–,–
Cc1c(O)c(Br)c(Br)c(Br)c1Br,208,–,–,–,–,–,–,–
ClC(Cl)(Br)Br,38,–,150,–,–,–,–,–
CCOP(=O)(SC(C)CC)SC(C)CC (centres undefined),–,–,–,–,–,-3.05,–,–
Cc1ccnc(NS(=O)(=O)c2ccc(N)cc2)n1,236,–,–,–,–,–,–,–
FC(F)=C(F)F,-142,–,-75.9,–,–,4.39,–,–
CCCCCCCCCCCCCC(=O)N(CCO)CCO,–,–,–,readily biodegradable,–,–,–,–
COc1cc(C)ccc1C,–,–,194,–,–,–,–,–
CCC1(c2ccccc2)C(=O)N(COC)C(=O)N(COC)C1=O,117,–,–,–,–,–,–,–
CC1=CC(=O)C=CC1=O,69,–,–,–,–,–,–,–
CC(=O)N(C)C(=O)COC(=O)c1ccccc1,102,–,–,–,–,–,–,–
O=C=Nc1cccc(Cl)c1,-4,–,–,–,–,-0.712,–,–
Nc1cccc2c1C(=O)c1ccccc1C2=O,254,–,–,not readily biodegradable,–,-8.3,–,–
COc1cc(CCC(C)=O)ccc1O,40.5,–,–,–,–,–,–,–
CCOCCOC(C)=O,-61.7,–,156,readily biodegradable,-5.49,0.369,–,–

Structure (SMILES),melting point [°C],log10 Koa,boiling point [°C],ready biodegradability,log10 Henry constant (atm·m³/mol),log10 vapour pressure (mmHg),log10 Koc (L/kg),log10 biodegradation half-life (days)
O=C(O)COc1nc(Cl)c(Cl)cc1Cl,149,–,–,–,–,-5.9,1.67,–
C#CC=CC=C,-81,–,83.5,–,–,–,–,–
NS(=O)(=O)c1ccccc1,151,–,–,not readily biodegradable,–,–,–,–
O=P(O)(c1ccccc1)c1ccccc1,194,–,–,–,–,–,–,–
Cc1cccc(N=Nc2ccc(N(C)C)cc2)c1,138,–,–,–,–,–,–,–
CCOC(=O)C(Cl)Cc1cc(-n2nc(C)n(C(F)F)c2=O)c(F)cc1Cl (centres undefined),-22.1,–,352,–,–,-6.92,–,–
CC(C)OC(=O)C(Cl)Cl,–,–,164,–,–,–,–,–
Nc1c(Cl)cc([N+](=O)[O-])cc1Cl,191,–,–,not readily biodegradable,–,-5.92,3,–
CCCCCCCCCC(=O)O,31.9,–,269,readily biodegradable,–,-3.44,–,–
CCSC(=O)COc1ccc(Cl)cc1C,41.5,–,–,–,–,-3.8,–,–
Cc1cc(C2(c3cc(C)c(O)c(Br)c3)OS(=O)(=O)c3ccccc32)cc(Br)c1O,242,–,–,–,–,–,–,–
CO[C@H]1[C@@H](O)[C@@H](C)O[C@H](O[C@H]2[C@H](Oc3cccc4c(O)c5c(=O)oc6ccc(C)c7c(=O)oc(c34)c5c67)O[C@H](C)[C@H](O)[C@@H]2O)[C@@H]1O,185,–,–,–,–,–,–,–
CC1COCc2cc3c(cc21)C(C)(C)C(C)C3(C)C (centres undefined),-5,–,325,–,–,-3.26,–,–
CC(=O)c1c(O)c(C)c(O)c(Cc2c(O)c3c(c(C(=O)/C=C/c4ccccc4)c2O)OC(C)(C)C=C3)c1O,212,–,–,–,–,–,–,–
CCOC(=O)CCC(C)C,–,–,163,–,–,–,–,–
Cc1c(Cl)cc(Cl)c(Cl)c1Cl,94,–,276,–,–,–,–,–
NC(=S)N=C(N)N,172,–,–,–,–,–,–,–
C[C@]12CC[C@H](O)C[C@@H]1CC[C@@H]1[C@@H]2[C@@H](O)C[C@@]2(C)[C@H]1CC[C@]2(O)C(=O)CO,244,–,–,–,–,–,–,–
Clc1ccc(Cl)c2c(Cl)cccc12,–,7.56,–,–,–,–,–,–
CCCCCC(=O)OC(=O)CCCCC,-41,–,–,–,–,–,–,–
Cc1c(F)c(F)cc(F)c1F,–,–,126,–,–,–,–,–
CCS(=O)(=O)O,-17,–,–,–,–,–,–,–

Structure (SMILES),melting point [°C],log10 Koa,boiling point [°C],ready biodegradability,log10 Henry constant (atm·m³/mol),log10 vapour pressure (mmHg),log10 Koc (L/kg),log10 biodegradation half-life (days)
COc1cccc(Nc2ccccc2)c1,73,–,–,–,–,–,–,–
CC1(C)CCC(Cc2ccc(Cl)cc2)C1(O)Cn1cncn1 (centres undefined),112,–,–,–,–,-7.03,–,–
Nc1ccc(N)c2c1C(=O)c1cccc([N+](=O)[O-])c1C2=O,257,–,–,–,–,–,–,–
CCCCCCCCCCCCCCCCCCOS(=O)(=O)[O][Na],–,–,–,readily biodegradable,–,–,–,–
CCCCOC(=O)N(C)SN(C)C(=O)Oc1cccc2c1OC(C)(C)C2,–,–,–,–,–,-7.53,–,–
C=COCC(C)C,-112,–,83,–,–,1.77,–,–
C/C=C/C(=O)c1ccccc1,20.5,–,–,–,–,–,–,–
N#Cc1ccco1,–,–,147,–,–,–,–,–
CCOc1ccc2ccccc2c1,37.5,–,282,–,–,–,–,–
CCCCCOC(=O)CCCCC,-47,–,226,–,–,–,–,–
C1CCCOCC1,–,–,119,–,–,–,–,–
COc1cc(OC)nc(Oc2cccc(Oc3nc(OC)cc(OC)n3)c2C(=O)ON=C(c2ccccc2)c2ccccc2)n1,129,–,–,–,–,–,–,–
NC(=O)c1ccccc1O,142,–,–,–,–,–,–,–
C=C(Br)CC1(C(C)C)C(=O)NC(=O)NC1=O,181,–,–,–,–,–,–,–
FC(F)CC(F)(F)F,-102,–,40,–,–,3.05,–,–
CC(C)NCC(O)COc1cccc2[nH]ccc12 (centres undefined),171,–,–,–,–,–,–,–
O=[N+]([O-])CCO,-80,–,194,–,–,–,–,–
CCC(=O)CC,-39,3.2,102,readily biodegradable,-4.3,1.58,–,–
NS(=O)(=O)c1ccc(SCCO)c([N+](=O)[O-])c1,151,–,–,–,–,–,–,–
O=C(O)/C(F)=C/c1ccccc1,158,–,290,–,–,–,–,–
CCC(Nc1ncnc(C)c1Cl)c1ccc(OC(F)F)cc1 (centres undefined),47.3,–,–,–,–,-5.62,–,–
O=[N+]([O-])c1ccc2[nH]cnc2c1,208,–,–,not readily biodegradable,–,–,–,–

Structure (SMILES),melting point [°C],log10 Koa,boiling point [°C],ready biodegradability,log10 Henry constant (atm·m³/mol),log10 vapour pressure (mmHg),log10 Koc (L/kg),log10 biodegradation half-life (days)
CC(C)(S)C(=O)O,47,–,–,–,–,–,–,–
O=C(O)CCCCCCCCCCCC(=O)O,111,–,–,–,–,–,–,–
CCOCC(=O)OCC,–,–,158,–,–,–,–,–
CCCCCCCCCCCCCCc1ccccc1,16,–,359,–,–,-4.62,–,–
C=Cc1c(Cl)cccc1Cl,89,–,–,–,–,–,–,–
CCCCCCCCCC(=O)CCCCCCCCC,65.5,–,–,–,–,–,–,–
Cc1ccc(NC(=O)c2ccccc2)cc1,158,–,–,–,–,–,–,–
C=CCC(=C)C,–,–,56,–,–,–,–,–
O=C(Cl)c1cccc([N+](=O)[O-])c1,36,–,276,–,–,–,–,–
CCCCNC(=O)n1cc(F)c(=O)[nH]c1=O,136,–,–,–,–,–,–,–
NCCOP(=O)(O)O,242,–,–,–,–,–,–,–
Oc1cccc(O)c1O,133,–,309,readily biodegradable,–,-3.32,–,–
Cc1ccc(Oc2ccc([N+](=O)[O-])cc2)cc1,69,–,–,–,–,–,–,–
c1ccc2c(c1)ccc1ccccc12,99.2,7.57,340,readily biodegradable,-4.37,-3.92,4.35,1.62
NC(=O)OCC(COC(N)=O)c1ccccc1,152,–,–,–,–,–,–,–
FCCCBr,–,–,101,–,–,–,–,–
COc1ccccc1N1CCN(CCCNc2cc(=O)n(C)c(=O)n2C)CC1,157,–,–,–,–,–,–,–
O=c1oc2ccccc2c(O)c1C1CCCc2ccccc21 (centres undefined),172,–,–,–,–,-10.2,–,–
O=C(CS)Nc1ccc2ccccc2c1,112,–,–,–,–,–,–,–
O=C(O)C1CCCN1 (racemic),205,–,–,–,–,–,–,–

# Same assay, conditions: fish
Structure (SMILES),log10 BCF,log10 biotransformation half-life (days)
Nc1cccc2c1C(=O)c1ccccc1C2=O,1.98,-0.59
NS(=O)(=O)c1ccccc1,0.68,-0.71
CC1(C)CCC(Cc2ccc(Cl)cc2)C1(O)Cn1cncn1 (centres undefined),–,0.23
O=[N+]([O-])c1ccc2[nH]cnc2c1,0.4,-1.15
COc1c(Cl)cc(Cl)c(Cl)c1Cl,3.34,–
Clc1c(Cl)c(Cl)c(Oc2c(Cl)c(Cl)c(Cl)c(Cl)c2Cl)c(Cl)c1Cl,–,1.8
c1ccc2c(c1)ccc1ccccc12,3.4,0.7
